Source: publication PMC9505067, “Synthesis of Hydantoin Androgen Receptor Antagonists and Study on Their Antagonistic Activity” (Molecules, 2022)
Where two headings read alike, the source gives them in different places.

What was measured:
androgen receptor (AR) = target: T1, androgen receptor (AR) (Homo sapiens, UniProt P10275); assay: AR antagonist luciferase gene reporter assay (AR plasmid pSVAR0 + MMTV-Luc, DHT at EC80)
T1 sequence (P10275 1-920): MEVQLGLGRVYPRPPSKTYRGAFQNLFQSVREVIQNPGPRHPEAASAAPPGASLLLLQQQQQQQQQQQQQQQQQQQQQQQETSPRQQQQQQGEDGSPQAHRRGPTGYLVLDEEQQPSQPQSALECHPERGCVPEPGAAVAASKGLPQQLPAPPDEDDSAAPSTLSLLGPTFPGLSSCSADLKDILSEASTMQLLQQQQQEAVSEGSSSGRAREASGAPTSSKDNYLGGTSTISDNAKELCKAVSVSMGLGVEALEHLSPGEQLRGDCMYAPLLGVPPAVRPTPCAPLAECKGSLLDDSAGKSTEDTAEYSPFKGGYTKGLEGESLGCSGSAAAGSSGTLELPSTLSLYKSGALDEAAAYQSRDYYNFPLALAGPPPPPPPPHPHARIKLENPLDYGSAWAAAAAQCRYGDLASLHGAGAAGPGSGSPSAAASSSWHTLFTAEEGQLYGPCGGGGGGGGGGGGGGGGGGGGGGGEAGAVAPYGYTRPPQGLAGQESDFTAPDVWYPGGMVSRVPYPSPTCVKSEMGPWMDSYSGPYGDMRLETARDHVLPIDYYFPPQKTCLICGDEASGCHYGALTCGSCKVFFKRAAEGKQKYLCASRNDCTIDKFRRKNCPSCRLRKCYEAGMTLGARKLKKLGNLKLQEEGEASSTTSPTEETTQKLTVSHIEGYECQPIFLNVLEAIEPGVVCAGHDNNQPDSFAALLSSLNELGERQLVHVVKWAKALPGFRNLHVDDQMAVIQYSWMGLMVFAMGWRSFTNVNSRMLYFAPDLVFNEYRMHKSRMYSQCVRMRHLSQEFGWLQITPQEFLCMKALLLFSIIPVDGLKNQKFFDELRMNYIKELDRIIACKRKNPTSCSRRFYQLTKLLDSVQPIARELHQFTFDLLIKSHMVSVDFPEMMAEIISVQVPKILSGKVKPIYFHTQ

[1] = Antagonist Activity in CV-1 IC50, luciferase reporter in AR-transfected cells, DHT at EC80, 24 h incubation, means ± SD of three independent experiments
[2] = luciferase reporter in AR-transfected cells, DHT at EC80, 24 h, enzalutamide = 100, means ± SD of three independent experiments

| Compound | melting point [°C] | Antagonist Activity in CV-1 Efficacy (androgen receptor (AR)) [%] | IC50 (androgen receptor (AR); [1]) [nM] | IC50 (androgen receptor (AR)) [nM] | Antagonist Activity in CV-1 Efficacy (androgen receptor (AR); [2]) [%] |
| --- | --- | --- | --- | --- | --- |
| CC1(CO)C(=O)N(c2ccc(C#N)c(C(F)(F)F)c2)C(=S)N1c1ccc(Cl)cc1 (stereo not drawn) [6d, 4-(3-(4-chlorophenyl)-4-(hydroxymethyl)-4-methyl-5-oxo-2-thioxoimidazolidin-1-yl)-2-(trifluoromethyl)benzonitrile] | 205 to 207 | 96 ± 3.8 | 79.3 ± 13.2 | – | – |
| CNC(=O)c1ccc(N2C(=S)N(c3ccc(C#N)c(C(F)(F)F)c3)C(=O)C2(C)CO)cc1F (stereo not drawn) [6k, 4-(3-(4-cyano-3-(trifluoromethyl)phenyl)-5-(hydroxymethyl)-5-methyl-4-oxo-2-thioxoimidazolidin-1-yl)-2-fluoro-N-methylbenzamide] | – | 88 ± 3.5 | 126 | – | – |
| COc1ccc(N2C(=S)N(c3ccc(C#N)c(C(F)(F)F)c3)C(=O)C2(C)CO)cc1 (stereo not drawn) [6f, 4-(4-(hydroxymethyl)-3-(4-methoxyphenyl)-4-methyl-5-oxo-2-thioxoimidazolidin-1-yl)-2-(trifluoromethyl)benzonitrile] | 183 to 185 | 89 ± 3.7 | 286 ± 29.5 | – | – |
| COC(=O)c1ccc(N2C(=S)N(c3ccc(C#N)c(C(F)(F)F)c3)C(=O)C2(C)CO)cc1 (stereo not drawn) [6j, methyl 4-(3-(4-cyano-3-(trifluoromethyl)phenyl)-5-(hydroxymethyl)-5-methyl-4-oxo-2-thioxoimidazolidin-1-yl)benzoate] | 168 to 170 | 95 ± 4.2 | 532 ± 58.2 | – | – |
| CNC(=O)c1ccc(N2C(=S)N(c3cnc(C#N)c(C(F)(F)F)c3)C(=O)C2(C)CO)cc1F (stereo not drawn) [19c, 4-(3-(6-cyano-5-(trifluoromethyl)pyridin-3-yl)-5-(hydroxymethyl)-5-methyl-4-oxo-2-thioxoimidazolidin-1-yl)-2-fluoro-N-methylbenzamide] | 127 to 129 | – | – | 903 ± 602 | 55.46 ± 14.74 |
| CC1(CO)C(=O)N(c2ccc(C#N)c(C(F)(F)F)c2)C(=S)N1c1ccc([N+](=O)[O-])cc1 (stereo not drawn) [6h, 4-(4-(hydroxymethyl)-4-methyl-3-(4-nitrophenyl)-5-oxo-2-thioxoimidazolidin-1-yl)-2-(trifluoromethyl)benzonitrile] | 206 to 208 | – | 79600 | – | – |
| Cc1ccc(N2C(=S)N(c3ccc(C#N)c(C(F)(F)F)c3)C(=O)C2(C)CO)cc1 (stereo not drawn) [6b, 4-(4-(hydroxymethyl)-4-methyl-5-oxo-2-thioxo-3-(p-tolyl)imidazolidin-1-yl)-2-(trifluoromethyl)benzonitrile] | 190 to 192 | 86 ± 4.2 | 549 ± 47.8 | – | – |
| CN1CCC(Oc2ccc(N3C(=S)N(c4ccc(C#N)c(C(F)(F)F)c4)C(=O)C3(C)CO)cc2)CC1 (stereo not drawn) [6l, 4-(4-(hydroxymethyl)-4-methyl-3-(4-((1-methylpiperidin-4-yl)oxy)phenyl)-5-oxo-2-thioxoimidazolidin-1-yl)-2-(trifluoromethyl)benzonitrile] | 117 to 119 | 92 ± 2.9 | 337 | – | – |
| CC1(CO)C(=O)N(c2ccc(C#N)c(C(F)(F)F)c2)C(=O)N1c1ccc(C(F)(F)F)cc1 (stereo not drawn) [7i, 4-(4-(hydroxymethyl)-4-methyl-2,5-dioxo-3-(4-(trifluoromethyl)phenyl)imidazolidin-1-yl)-2-(trifluoromethyl)benzonitrile] | 161 to 163 | 99 ± 12.5 | 149 ± 30.4 | – | – |
| CC1(CO)C(=O)N(c2ccc(C#N)c(C(F)(F)F)c2)C(=O)N1c1ccc(O)cc1 (stereo not drawn) [11b, 4-(4-(hydroxymethyl)-3-(4-hydroxyphenyl)-4-methyl-2,5-dioxoimidazolidin-1-yl)-2-(trifluoromethyl)benzonitrile] | 110 to 112 | 100 ± 3.4 | 2360 ± 1710 | – | – |
| CC(=O)Nc1ccc(N2C(=O)N(c3ccc(C#N)c(C(F)(F)F)c3)C(=O)C2(C)CO)cc1 (stereo not drawn) [compound 10, N-(4-(3-(4-cyano-3-(trifluoromethyl)phenyl)-5-(hydroxymethyl)-5-methyl-2,4-dioxoimidazolidin-1-yl)phenyl)acetamide] | 124 to 126 | 84 ± 8.6 | > 5000 | – | – |
| CC1(CO)C(=O)N(c2ccc(C#N)c(C(F)(F)F)c2)C(=S)N1c1ccc(C(F)(F)F)cc1 (stereo not drawn) [6i, 4-(4-(hydroxymethyl)-4-methyl-5-oxo-2-thioxo-3-(4-(trifluoromethyl)phenyl)imidazolidin-1-yl)-2-(trifluoromethyl)benzonitrile] | 178 to 180 | 102 ± 8.9 | 68.2 ± 4.6 | – | – |
| CC1(CO)C(=O)N(c2ccc(C#N)c(C(F)(F)F)c2)C(=O)N1c1ccc(Cl)cc1 (stereo not drawn) [7d, 4-(3-(4-chlorophenyl)-4-(hydroxymethyl)-4-methyl-2,5-dioxoimidazolidin-1-yl)-2-(trifluoromethyl)benzonitrile] | 152 to 154 | 94 ± 9.7 | 68.6 ± 22.4 | – | – |
| CC1(CO)C(=O)N(c2ccc(C#N)c(C(F)(F)F)c2)C(=S)N1c1ccc(O)cc1 (stereo not drawn) [11a, 4-(4-(hydroxymethyl)-3-(4-hydroxyphenyl)-4-methyl-5-oxo-2-thioxoimidazolidin-1-yl)-2-(trifluoromethyl)benzonitrile] | 203 to 205 | 90 ± 7.5 | 3640 ± 932 | – | – |
| CC(=O)Nc1ccc(N2C(=S)N(c3ccc(C#N)c(C(F)(F)F)c3)C(=O)C2(C)CO)cc1 (stereo not drawn) [compound 9, N-(4-(3-(4-cyano-3-(trifluoromethyl)phenyl)-5-(hydroxymethyl)-5-methyl-4-oxo-2-thioxoimidazolidin-1-yl)phenyl)acetamide] | 126 to 128 | 95 ± 3.1 | 939 ± 124 | – | – |
| CN1CCC(Oc2ccc(N3C(=S)N(c4cnc(C#N)c(C(F)(F)F)c4)C(=O)C3(C)CO)cc2)CC1 (stereo not drawn) [19d, 5-(4-(hydroxymethyl)-4-methyl-3-(4-((1-methylpiperidin-4-yl)oxy)phenyl)-5-oxo-2-thioxoimidazolidin-1-yl)-3-(trifluoromethyl)picolinonitrile] | 119 to 121 | – | – | 139 ± 28.1 | 81.64 ± 5.92 |
| CC1(CO)C(=O)N(c2ccc(C#N)c(C(F)(F)F)c2)C(=O)N1c1ccc(C#N)cc1 (stereo not drawn) [7g, 4-(3-(4-cyanophenyl)-4-(hydroxymethyl)-4-methyl-2,5-dioxoimidazolidin-1-yl)-2-(trifluoromethyl)benzonitrile] | – | 98 ± 11.6 | 61 ± 6.1 | – | – |
| CC1(CO)C(=O)N(c2ccc(C#N)c(C(F)(F)F)c2)C(=S)N1c1ccc(Br)cc1 (stereo not drawn) [6e, 4-(3-(4-bromophenyl)-4-(hydroxymethyl)-4-methyl-5-oxo-2-thioxoimidazolidin-1-yl)-2-(trifluoromethyl)benzonitrile] | 206 to 208 | 86 ± 6.5 | 117 ± 16.3 | – | – |
| COc1ccc(N2C(=O)N(c3ccc(C#N)c(C(F)(F)F)c3)C(=O)C2(C)CO)cc1 (stereo not drawn) [7f, 4-(4-(hydroxymethyl)-3-(4-methoxyphenyl)-4-methyl-2,5-dioxoimidazolidin-1-yl)-2-(trifluoromethyl)benzonitrile] | 128 to 130 | 90 ± 13.3 | 416 ± 230 | – | – |
| CC1(CO)C(=O)N(c2ccc(C#N)c(C(F)(F)F)c2)C(=O)N1c1ccccc1 (stereo not drawn) [7a, 4-(4-(hydroxymethyl)-4-methyl-2,5-dioxo-3-phenylimidazolidin-1-yl)-2-(trifluoromethyl)benzonitrile] | 187 to 189 | 101 ± 15.1 | 94.8 ± 12.8 | – | – |
| Cc1ccc(N2C(=O)N(c3ccc(C#N)c(C(F)(F)F)c3)C(=O)C2(C)CO)cc1 (stereo not drawn) [7b, 4-(4-(hydroxymethyl)-4-methyl-2,5-dioxo-3-(p-tolyl)imidazolidin-1-yl)-2-(trifluoromethyl)benzonitrile] | 156 to 158 | 95 ± 12.3 | 115 ± 17.6 | – | – |
| CC1(CO)C(=O)N(c2ccc(C#N)c(C(F)(F)F)c2)C(=O)N1c1ccc(Br)cc1 (stereo not drawn) [7e, 4-(3-(4-bromophenyl)-4-(hydroxymethyl)-4-methyl-2,5-dioxoimidazolidin-1-yl)-2-(trifluoromethyl)benzonitrile] | 102 to 104 | 95 ± 11.2 | 84.2 ± 37.1 | – | – |
